2 compounds from US9034398B2, “Traditional Chinese drug comprising Danshen extracts and Sanqi extracts and use thereof” (TASLY Pharmaceutical Group Co., LTD., priority 2009, dated 2015) can be followed below.

This assay concerns rat myocardial I/R model. Kind of assay: Heart blood flow volume by laser Doppler perfusion imaging (LDPI). Type of assay: in vivo. The settings on record: for inhibitory effect on the decrease of the heart blood flow volume after I/R / heart blood flow volume regained compared to I/R group (LDPI images): 5 mg/kg BW/h intravenous drip; for inhibitory effect on the decrease of the heart blood flow volume after I/R: FIG. 5A; for heart blood flow volume regained compared to I/R group (LDPI images): at 30 min and 60 min after reperfusion, FIG. 4A. On the procedure: The rats were anesthetized by intramuscularly injecting 20 wt % urethane (1.25 g/kg) and fixed in the supine position. Neck skin was incised and anterior cervical muscles were separated to expose the trachea. Tracheal intubation was performed. Another end of the intubation was attached to a Small Animal Ventilator (ALC-V8, Shanghai Aoteshai Biology Science and Technology Limited Company, Shanghai, China) so as to carry out pressure breathing under the following conditions: a respiratory ratio of 1:1, a respiratory frequency of 75 times/min and a tidal volume of 12 mL/kg. The rectal temperature, measured with YSI REF 401 (Yellow Spring, Ohio, USA), was maintained at 37 37.5° C. by using a thermal blanket. The chest was sterilized and opened at the intercostal space between 2nd 4th ribs near the left and right sternal border to expose the heart. The 3⁄8 curved needle threaded with 3-0 suture was used to pass through the site at 1 2 mm below the juncture of the pulmonary artery cone and the left atrial appendage. The suture was ligated. A polyethylene tubule was placed between the silk suture and myocardial tissue, the silk suture was […] to cause ischemia. Ligature was released 30 min later to establish an I/R model. Danshensu+I/R group (DLA+I/R group): a Danshensu aqueous solution (in normal saline, 1.25 mg/ml) was administrated at a dosage of 5 mg/kg BW/h by intravenous drip 20 min before the experiment and continued until the end of the entire experiment. Notoginsenoside R1+I/R group (R1+I/R group): a Notoginsenoside R1 aqueous solution (in normal saline, 1.25 mg/ml) was administrated at a dosage of 5 mg/kg BW/h by intravenous drip 20 min before the experiment and continued until the end of the entire experiment. Danshensu:R1(4:1)+I/R group (DR(4:1)+I/R group): an aqueous solution of Danshensu and Notoginsenoside R1 at a weight ratio of 4:1, dissolved in normal saline (1.25 mg/ml, namely, in the solution, the concentration of Danshensu is 1 mg/ml and the concentration of Notoginsenoside R1 is 0.25 mg/ml), was administrated at a dosage of 5 mg/kg BW/h (namely, in the total dosage, the dosage of Danshensu is 4 mg/kg BW/h and the dosage of Notoginsenoside R1 is 1 mg/kg BW/h) by intravenous drip 20 min before the experiment and continued until the end of the entire experiment. Danshensu:R1 (1:1)+I/R group (DR(1:1)+IR group): an aqueous solution of Danshensu and Notoginsenoside R1 at a weight ratio of 1:1, dissolved in normal saline (1.25 mg/ml, namely, in the solution, the concentration of Danshensu is 0.625 mg/ml and the concentration of Notoginsenoside R1 is 0.625 mg/ml), was administrated at a dosage of 5 mg/kg BW/h (namely, in the total dosage, the dosage of Danshensu is 2.5 mg/kg BW/h and the dosage of Notoginsenoside R1 is 2.5 mg/kg BW/h) by intravenous drip 20 min before the experiment and continued until the end of the entire experiment. […] Blood flow volumes on the surface of heart before ischemia, 5 min, 30 min after ischemia, and 5 min, 30 min, 60 min after reperfusion had been recorded by a computer-aided laser Doppler perfusion imager (LDPI) (PeriScan PIM3, […], Sweden). Images were measured and the data were evaluated with […] software. Change rate of blood flow volume of the heart was calculated by taking the blood flow volume before I/R as a baseline.

Turning to `O=C(O)C(O)Cc1ccc(O)c(O)c1` (centres unmarked) [Danshensu, (3,4-dihydroxyphenyl)lactic acid], the “heart blood flow volume regained compared to I/R group (LDPI images)” value is given as “regained to some extent”. The “inhibitory effect on the decrease of the heart blood flow volume after I/R” value (at 5 min after reperfusion) is listed as “significantly inhibitory effect”. For the same compound, the “amelioration of heart perfusion flow caused by I/R (summary)” value (rats, summary statement of the description) is “transiently ameliorate”.

Consider `CC(C)=CCC[C@](C)(O[C@@H]1O[C@H](CO)[C@@H](O)[C@H](O)[C@H]1O)[C@H]1CC[C@]2(C)[C@@H]1[C@H](O)C[C@@H]1[C@@]3(C)CC[C@H](O)C(C)(C)[C@@H]3[C@@H](O[C@@H]3O[C@H](CO)[C@@H](O)[C@H](O)[C@H]3O[C@@H]3OC[C@@H](O)[C@H](O)[C@H]3O)C[C@]12C` [Notoginsenoside R1], for which the “heart blood flow volume regained compared to I/R group (LDPI images)” value is on record as “regained to some extent”. Moreover, the “inhibitory effect on the decrease of the heart blood flow volume after I/R” value (no time stated) is on record as “has not been observed to have significantly inhibitory effect”.
